Data from patent US20080021026A1, “BENZOTHIOPHENE INHIBITORS OF RHO KINASE” (priority 2006, published 2008).

biological target: T1, recombinant N-terminal GST-tagged human Rho kinase 2 (ROCK2, amino acids 1-552) (Homo sapiens, UniProt O75116); assay: In vitro Rho kinase assay (luciferase-based ATP consumption), ROCK2; assay type: biochemical; conditions: recombinant GST-tagged human ROCK2, luciferase-based ATP consumption; read-out: ROCK2 IC50
T1 construct: ROCK2, amino acids 1-552; purchased Invitrogen Inc. PV3759
Method in brief: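 GST-ROCK2 (aa 1-552, 0.82 μg/ml) with 100 μg/ml S6 peptide and 3 µM ATP in Tris pH 7.5 buffer with MgCl2/CaCl2/EGTA/BSA, compound added just after reaction start, 2 h at 30 °C. Remaining ATP read by luciferase luminescence. Efficacy expressed as percentage of H-1152P positive control.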

T1 sequence (O75116 1-552): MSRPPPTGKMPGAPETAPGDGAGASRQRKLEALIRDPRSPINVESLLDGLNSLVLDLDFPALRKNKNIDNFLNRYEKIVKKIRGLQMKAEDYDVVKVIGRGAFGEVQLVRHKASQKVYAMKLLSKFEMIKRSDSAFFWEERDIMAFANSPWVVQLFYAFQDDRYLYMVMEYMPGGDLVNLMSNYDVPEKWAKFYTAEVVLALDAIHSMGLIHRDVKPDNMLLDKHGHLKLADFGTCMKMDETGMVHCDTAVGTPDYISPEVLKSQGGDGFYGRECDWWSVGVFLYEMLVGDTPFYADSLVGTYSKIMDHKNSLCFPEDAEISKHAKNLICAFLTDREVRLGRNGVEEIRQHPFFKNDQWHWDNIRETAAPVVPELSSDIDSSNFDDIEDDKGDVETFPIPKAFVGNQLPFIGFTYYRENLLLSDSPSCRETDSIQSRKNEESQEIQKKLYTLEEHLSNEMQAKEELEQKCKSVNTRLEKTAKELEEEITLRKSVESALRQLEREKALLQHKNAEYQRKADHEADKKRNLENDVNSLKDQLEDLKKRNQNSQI

`Cc1c(-c2ccnc(N)n2)sc2ccc(C(=O)NCCc3ccc4c(c3)OCO4)cc12` [Example 456, Cc1c(sc2ccc(cc12)C(═O)NCCc3ccc4OCOc4c3)-c5ccnc(N)n5] and `Cc1ccc(S(=O)(=O)NCCNC(=O)c2ccc3sc(-c4ccnc(N)n4)c(C)c3c2)cc1` [Example 458, Cc1ccc(cc1)S(═O)(═O)NCCNC(═O)c2ccc3sc(c(C)c3c2)-c4ccnc(N)n4] cannot be ordered by IC50: < 5 µM for the first, < 5 µM for the second.

Going from `Cc1c(-c2ccnc(N)n2)sc2ccc(C(=O)NCCC(c3ccccc3)c3ccccc3)cc12` [Example 457, Cc1c(sc2ccc(cc12)C(═O)NCCC(c3ccccc3)c4ccccc4)-c5ccnc(N)n5] to `Cc1c(-c2ccnc(N)n2)sc2ccc(C(=O)N(Cc3ccccc3)C(C)C)cc12` [Example 505, CC(C)N(Cc1ccccc1)C(═O)c2ccc3sc(c(C)c3c2)-c4ccnc(N)n4], the IC50 falls from > 5 µM to < 5 µM. The second is the more potent here.

`Cc1c(-c2ccnc(N)n2)sc2ccc(C(=O)N(C)C)cc12` [Example 459, CN(C)C(═O)c1ccc2sc(c(C)c2c1)-c3ccnc(N)n3] and `CCN(C)C(=O)c1ccc2sc(-c3ccnc(N)n3)c(C)c2c1` [Example 460, CCN(C)C(═O)c1ccc2sc(c(C)c2c1)-c3ccnc(N)n3] cannot be ordered by IC50: < 5 µM for the first, < 5 µM for the second.

`C#CCN(C)C(=O)c1ccc2sc(-c3ccnc(N)n3)c(C)c2c1` [Example 461, CN(CC#C)C(═O)c1ccc2sc(c(C)c2c1)-c3ccnc(N)n3] and `CCCN(C)C(=O)c1ccc2sc(-c3ccnc(N)n3)c(C)c2c1` [Example 463, CCCN(C)C(═O)c1ccc2sc(c(C)c2c1)-c3ccnc(N)n3] cannot be ordered by IC50: < 5 µM for the first, < 5 µM for the second.

`CCN(CC)C(=O)c1ccc2sc(-c3ccnc(N)n3)c(C)c2c1` [Example 462, CCN(CC)C(═O)c1ccc2sc(c(C)c2c1)-c3ccnc(N)n3] and `CCCCN(CC)C(=O)c1ccc2sc(-c3ccnc(N)n3)c(C)c2c1` [Example 477, CCCCN(CC)C(═O)c1ccc2sc(c(C)c2c1)-c3ccnc(N)n3] cannot be ordered by IC50: < 5 µM for the first, < 5 µM for the second.

`Cc1c(-c2ccnc(N)n2)sc2ccc(C(=O)N(C)CCO)cc12` [Example 464, CN(CCO)C(═O)c1ccc2sc(c(C)c2c1)-c3ccnc(N)n3] and `Cc1c(-c2ccnc(N)n2)sc2ccc(C(=O)N(C)CCC#N)cc12` [Example 465, CN(CCC#N)C(═O)c1ccc2sc(c(C)c2c1)-c3ccnc(N)n3] cannot be ordered by IC50: < 5 µM for the first, < 5 µM for the second.

`Cc1c(-c2ccnc(N)n2)sc2ccc(C(=O)N3CCOCC3)cc12` [Example 466, Cc1c(sc2ccc(cc12)C(═O)N3CCOCC3)-c4ccnc(N)n4] and `Cc1c(-c2ccnc(N)n2)sc2ccc(C(=O)N3CCSCC3)cc12` [Example 479, Cc1c(sc2ccc(cc12)C(═O)N3CCSCC3)-c4ccnc(N)n4] cannot be ordered by IC50: < 5 µM for the first, < 5 µM for the second.

`Cc1c(-c2ccnc(N)n2)sc2ccc(C(=O)N(C)CC(C)C)cc12` [Example 467, CC(C)CN(C)C(═O)c1ccc2sc(c(C)c2c1)-c3ccnc(N)n3] and `CCN(C(=O)c1ccc2sc(-c3ccnc(N)n3)c(C)c2c1)C(C)C` [Example 468, CCN(C(C)C)C(═O)c1ccc2sc(c(C)c2c1)-c3ccnc(N)n3] cannot be ordered by IC50: < 5 µM for the first, < 5 µM for the second.

`CCCCN(C)C(=O)c1ccc2sc(-c3ccnc(N)n3)c(C)c2c1` [Example 469, CCCCN(C)C(═O)c1ccc2sc(c(C)c2c1)-c3ccnc(N)n3] and `CCCN(CCC)C(=O)c1ccc2sc(-c3ccnc(N)n3)c(C)c2c1` [Example 478, CCCN(CCC)C(═O)c1ccc2sc(c(C)c2c1)-c3ccnc(N)n3] cannot be ordered by IC50: < 5 µM for the first, < 5 µM for the second.

`CCN(CCO)C(=O)c1ccc2sc(-c3ccnc(N)n3)c(C)c2c1` [Example 470, CCN(CCO)C(═O)c1ccc2sc(c(C)c2c1)-c3ccnc(N)n3] and `CCN(CCCCO)C(=O)c1ccc2sc(-c3ccnc(N)n3)c(C)c2c1` [Example 490, CCN(CCCCO)C(═O)c1ccc2sc(c(C)c2c1)-c3ccnc(N)n3] cannot be ordered by IC50: < 5 µM for the first, < 5 µM for the second.

`Cc1c(-c2ccnc(N)n2)sc2ccc(C(=O)N3CCSC3)cc12` [Example 471, Cc1c(sc2ccc(cc12)C(═O)N3CCSC3)-c4ccnc(N)n4] and `Cc1c(-c2ccnc(N)n2)sc2ccc(C(=O)N3CCC(N(C)C)C3)cc12` (stereo not drawn) [Example 484, CN(C)C1CCN(C1)C(═O)c2ccc3sc(c(C)c3c2)-c4ccnc(N)n4] cannot be ordered by IC50: < 5 µM for the first, < 5 µM for the second.

`Cc1c(-c2ccnc(N)n2)sc2ccc(C(=O)N3CCCCC3C)cc12` (stereo not drawn) [Example 472, CC1CCCCN1C(═O)c2ccc3sc(c(C)c3c2)-c4ccnc(N)n4] and `Cc1c(-c2ccnc(N)n2)sc2ccc(C(=O)N3CCCCC3CO)cc12` (stereo not drawn) [Example 489, Cc1c(sc2ccc(cc12)C(═O)N3CCCCC3CO)-c4ccnc(N)n4] cannot be ordered by IC50: < 5 µM for the first, < 5 µM for the second.

Compared with `Cc1c(-c2ccnc(N)n2)sc2ccc(C(=O)N3CCC(C)CC3)cc12` [Example 473, CC1CCN(CC1)C(═O)c2ccc3sc(c(C)c3c2)-c4ccnc(N)n4], `Cc1c(-c2ccnc(N)n2)sc2ccc(C(=O)N3CCC(C(N)=O)CC3)cc12` [Example 494, Cc1c(sc2ccc(cc12)C(═O)N3CCC(CC3)C(N)═O)-c4ccnc(N)n4] is higher in IC50: < 5 µM for the first, > 5 µM for the second. The first is the more potent here.

`Cc1c(-c2ccnc(N)n2)sc2ccc(C(=O)N3CCN(C)CC3)cc12` [Example 474, CN1CCN(CC1)C(═O)c2ccc3sc(c(C)c3c2)-c4ccnc(N)n4] and `Cc1c(-c2ccnc(N)n2)sc2ccc(C(=O)N3CC(C)CC(C)C3)cc12` (stereo not drawn) [Example 481, CC1CC(C)CN(C1)C(═O)c2ccc3sc(c(C)c3c2)-c4ccnc(N)n4] cannot be ordered by IC50: < 5 µM for the first, < 5 µM for the second.

`Cc1c(-c2ccnc(N)n2)sc2ccc(C(=O)N3CCCC3CO)cc12` (stereo not drawn) [Example 475, Cc1c(sc2ccc(cc12)C(═O)N3CCCC3CO)-c4ccnc(N)n4] and `Cc1c(-c2ccnc(N)n2)sc2ccc(C(=O)N3CCC[C@@H]3CO)cc12` [Example 476, Cc1c(sc2ccc(cc12)C(═O)N3CCC[C@@H]3CO)-c4ccnc(N)n4] cannot be ordered by IC50: < 5 µM for the first, < 5 µM for the second.

`Cc1c(-c2ccnc(N)n2)sc2ccc(C(=O)N(CCO)CCO)cc12` [Example 480, Cc1c(sc2ccc(cc12)C(═O)N(CCO)CCO)-c3ccnc(N)n3] and `Cc1c(-c2ccnc(N)n2)sc2ccc(C(=O)N(CCO)Cc3ccccc3)cc12` [Example 506, Cc1c(sc2ccc(cc12)C(═O)N(CCO)Cc3ccccc3)-c4ccnc(N)n4] cannot be ordered by IC50: < 5 µM for the first, < 5 µM for the second.

`Cc1c(-c2ccnc(N)n2)sc2ccc(C(=O)N(C)C3CCCCC3)cc12` [Example 482, CN(C1CCCCC1)C(═O)c2ccc3sc(c(C)c3c2)-c4ccnc(N)n4] and `CCN(C(=O)c1ccc2sc(-c3ccnc(N)n3)c(C)c2c1)C1CCCCC1` [Example 493, CCN(C1CCCCC1)C(═O)c2ccc3sc(c(C)c3c2)-c4ccnc(N)n4] cannot be ordered by IC50: < 5 µM for the first, < 5 µM for the second.

First: Cc1c(-c2ccnc(N)n2)sc2ccc(C(=O)N3C(C)CCCC3C)cc12 (stereo not drawn) [Example 483, CC1CCCC(C)N1C(═O)c2ccc3sc(c(C)c3c2)-c4ccnc(N)n4]
Second: Cc1c(-c2ccnc(N)n2)sc2ccc(C(=O)N3C[C@@H](C)N[C@@H](C)C3)cc12 [Example 485, C[C@@H]1CN(C[C@H](C)N1)C(═O)c2ccc3sc(c(C)c3c2)-c4ccnc(N)n4]
The IC50 of the first is higher: > 5 µM for the first, < 5 µM for the second. The second is the more potent here.

`Cc1c(-c2ccnc(N)n2)sc2ccc(C(=O)N3CCCC(CO)C3)cc12` (stereo not drawn) [Example 486, Cc1c(sc2ccc(cc12)C(═O)N3CCCC(CO)C3)-c4ccnc(N)n4] and `Cc1c(-c2ccnc(N)n2)sc2ccc(C(=O)N3CCCC(C(N)=O)C3)cc12` (stereo not drawn) [Example 496, Cc1c(sc2ccc(cc12)C(═O)N3CCCC(C3)C(N)═O)-c4ccnc(N)n4] cannot be ordered by IC50: < 5 µM for the first, < 5 µM for the second.

`COC[C@@H]1CCCN1C(=O)c1ccc2sc(-c3ccnc(N)n3)c(C)c2c1` [Example 487, COC[C@@H]1CCCN1C(═O)c2ccc3sc(c(C)c3c2)-c4ccnc(N)n4] and `Cc1c(-c2ccnc(N)n2)sc2ccc(C(=O)N3CCCCC3CCO)cc12` (stereo not drawn) [Example 497, Cc1c(sc2ccc(cc12)C(═O)N3CCCCC3CCO)-c4ccnc(N)n4] cannot be ordered by IC50: > 5 µM for the first, > 5 µM for the second.

First: Cc1c(-c2ccnc(N)n2)sc2ccc(C(=O)N3CC(C)OC(C)C3)cc12 (stereo not drawn) [Example 488, CC1CN(CC(C)O1)C(═O)c2ccc3sc(c(C)c3c2)-c4ccnc(N)n4]
Second: CC(=O)N[C@H]1CCN(C(=O)c2ccc3sc(-c4ccnc(N)n4)c(C)c3c2)C1 [Example 495, CC(═O)N[C@H]1CCN(C1)C(═O)c2ccc3sc(c(C)c3c2)-c4ccnc(N)n4]
The IC50 of the first is lower: < 5 µM for the first, > 5 µM for the second. The first is the more potent here.

`Cc1c(-c2ccnc(N)n2)sc2ccc(C(=O)N3Cc4ccccc4C3)cc12` [Example 491, Cc1c(sc2ccc(cc12)C(═O)N3Cc4ccccc4C3)-c5ccnc(N)n5] and `Cc1c(-c2ccnc(N)n2)sc2ccc(C(=O)N3CCc4ccccc4C3)cc12` [Example 498, Cc1c(sc2ccc(cc12)C(═O)N3CCc4ccccc4C3)-c5ccnc(N)n5] cannot be ordered by IC50: < 5 µM for the first, < 5 µM for the second.

`Cc1c(-c2ccnc(N)n2)sc2ccc(C(=O)N(C)Cc3ccccc3)cc12` [Example 492, CN(Cc1ccccc1)C(═O)c2ccc3sc(c(C)c3c2)-c4ccnc(N)n4] and `Cc1c(-c2ccnc(N)n2)sc2ccc(C(=O)N(C)CCc3ccccc3)cc12` [Example 500, CN(CCc1ccccc1)C(═O)c2ccc3sc(c(C)c3c2)-c4ccnc(N)n4] cannot be ordered by IC50: < 5 µM for the first, < 5 µM for the second.

Compared with `CCN(Cc1ccccc1)C(=O)c1ccc2sc(-c3ccnc(N)n3)c(C)c2c1` [Example 499, CCN(Cc1ccccc1)C(═O)c2ccc3sc(c(C)c3c2)-c4ccnc(N)n4], `Cc1c(-c2ccnc(N)n2)sc2ccc(C(=O)N(C)CCc3ccccn3)cc12` [Example 501, CN(CCc1ccccn1)C(═O)c2ccc3sc(c(C)c3c2)-c4ccnc(N)n4] is higher in IC50: < 5 µM for the first, > 5 µM for the second.

First: Cc1c(-c2ccnc(N)n2)sc2ccc(C(=O)N3CCCC4CCCCC43)cc12 (stereo not drawn) [Example 502, Cc1c(sc2ccc(cc12)C(═O)N3CCCC4CCCCC34)-c5ccnc(N)n5]
Second: C=CCN(C(=O)c1ccc2sc(-c3ccnc(N)n3)c(C)c2c1)C1CCCCC1 [Example 503, Cc1c(sc2ccc(cc12)C(═O)N(CC═C)C3CCCCC3)-c4ccnc(N)n4]
The IC50 of the first is higher: > 5 µM for the first, < 5 µM for the second. The second is the more potent here.

`COC(=O)C1CCN(C(=O)c2ccc3sc(-c4ccnc(N)n4)c(C)c3c2)CC1` [Example 504, COC(═O)C1CCN(CC1)C(═O)c2ccc3sc(c(C)c3c2)-c4ccnc(N)n4] was tested, and the IC50 was > 5 µM.
